Measured values reported in article PMC4741607 (Oncotarget, 2015).
pEC50: −log10 of the molar value. Read-outs that look alike come from different tables or passages of the source.

What was measured:
H2122 (EGFR wt) = assay: Proliferation (CellTiter-Glo), H2122; type: cell-based, human; details: Homo sapiens
H358 (EGFR wt) = assay: Proliferation (CellTiter-Glo), H358; type: cell-based, human; details: Homo sapiens
H1975 EGFR (L858R/T790M) = assay: Colony formation assay, H1975; type: cell-based, human
H3255 (EGFR L858R) = assay: Proliferation (CellTiter-Glo), H3255; type: cell-based, human; details: Homo sapiens
HCC827 (EGFR Del19) = assay: Proliferation (CellTiter-Glo), HCC827; type: cell-based, human; details: Homo sapiens
H23 (EGFR wt) = assay: Proliferation (CellTiter-Glo), H23; type: cell-based, human; details: Homo sapiens
H1975 (EGFR L858R/T790M) = assay: Proliferation (CellTiter-Glo), H1975; type: cell-based, human; details: Homo sapiens
PC-9 EGFR del 19 = assay: Colony formation assay, PC-9; type: cell-based, human
PC-9 (EGFR Del19) = assay: Proliferation (CellTiter-Glo), PC-9; type: cell-based, human; details: Homo sapiens
HCC827 EGFR Del 19 = assay: Colony formation assay, HCC827; type: cell-based, human
A549 (EGFR wt) = assay: Proliferation (CellTiter-Glo), A549; type: cell-based, human; details: Homo sapiens
A431 (EGFR wt) = assay: Proliferation (CellTiter-Glo), A431; type: cell-based, human; details: Homo sapiens
H460 (EGFR wt) = assay: Proliferation (CellTiter-Glo), H460; type: cell-based, human; details: Homo sapiens
H3255 EGFR L858R = assay: Colony formation assay, H3255; type: cell-based, human
HCC827 cells = assay: Cell cycle analysis (FACS), HCC827; type: cell-based, human; details: HCC827, 24 h, 0.3 μM
H3255 cells = assay: Cell cycle analysis (FACS), H3255; type: cell-based, human; details: H3255, 24h, 0.3 μM
H460 cells = assay: Cell cycle analysis (FACS), H460; type: cell-based, human; details: H460, 48h, 0.3 μM
PC-9 cells = assay: Cell cycle analysis (FACS), PC-9; type: cell-based, human; details: PC-9, 24h, 0.3 μM
PC-9 xenograft = PC-9 xenograft mouse model; type: in vivo, Nude (Nu/Nu) mice; details: PC-9 xenograft, 25 mg/kg/day QD oral gavage
Description: (§1) Tumor diameter was measured 3 times weekly. Tumor volumes (V) were calculated by the equation (V = length × width × width/2). ALL experiments and procedures followed the guidelines of the Institutional Animal Care and Use Committees of National Institue of Biological Sciences, Beijing.

H1975 xenograft = H1975 xenograft mouse model; type: in vivo, Nude (Nu/Nu) mice; details: 25 mg/kg/day QD oral gavage
Description: as §1

## C=CC(=O)Nc1cc(Nc2nccc(-c3cn(C)c4ccccc34)n2)c(OC)cc1N(C)CCN(C)C [AZD-9291, AZD9291]
H2122 (EGFR wt); NCI-H2122, 72 h
  GI50: 7.6 µM
H358 (EGFR wt); NCI-H358, 72 h
  GI50: 9.4 µM
H1975 EGFR (L858R/T790M); Homo sapiens, NCI-H1975, 240 h, read-out: EC50 colony formation, H1975, 10 days
  pEC50: 6.93
H1975 EGFR (L858R/T790M); read-out: EC50 colony formation, H1975, 10 days
  pEC50: 6.93
H3255 (EGFR L858R); NCI-H3255, 72 h
  GI50: 0.031 µM
HCC827 (EGFR Del19); HCC827, 72 h
  GI50: 0.004 µM
H23 (EGFR wt); 72 h
  GI50: 4.2 µM
H1975 (EGFR L858R/T790M); NCI-H1975, 72 h
  GI50: […]
PC-9 EGFR del 19; Homo sapiens, 240 h, read-out: EC50 colony formation, PC-9, 10 days
  pEC50: 8.60
PC-9 (EGFR Del19); 72 h
  GI50: 0.003 µM
HCC827 EGFR Del 19; Homo sapiens, HCC827, 240 h, read-out: EC50 colony formation, HCC827, 10 days
  pEC50: 8.91
HCC827 EGFR Del 19; read-out: EC50 colony formation, HCC827, 10 days
  pEC50: 8.92
A549 (EGFR wt); A549, 72 h
  GI50: 5 µM
A431 (EGFR wt); A-431, 72 h
  GI50: […]
H460 (EGFR wt); NCI-H460, 72 h
  GI50: 4 µM
H3255 EGFR L858R; Homo sapiens, NCI-H3255, 240 h, read-out: EC50 colony formation, H3255, 10 days
  pEC50: 8.25
H3255 EGFR L858R; read-out: EC50 colony formation, H3255, 10 days
  pEC50: 8.26

## C=CC(=O)Nc1cccc(Nc2nc(Nc3ccc(N4CCN(C(C)=O)CC4)cc3OC)ncc2C(F)(F)F)c1 [CO-1686]
H2122 (EGFR wt); NCI-H2122, H2122, EGFR wt, 72 hours, read-out: GI50
  GI50: 1.4 µM
H358 (EGFR wt); NCI-H358, H358, EGFR wt, 72 hours, read-out: GI50
  GI50: 4.8 µM
H1975 EGFR (L858R/T790M); Homo sapiens, NCI-H1975, 240 h, H1975, 10 days, read-out: EC50 colony formation
  pEC50: 6.22
H3255 (EGFR L858R); NCI-H3255, H3255, EGFR L858R, 72 hours, read-out: GI50
  GI50: 0.25 µM
HCC827 cells
  %G0-G1: 83.96%
  %G2-M: 3.62%
HCC827 (EGFR Del19); HCC827, EGFR Del19, 72 hours, read-out: GI50
  GI50: 0.097 µM
H23 (EGFR wt); H23, EGFR wt, 72 hours, read-out: GI50
  GI50: 1.4 µM
H1975 (EGFR L858R/T790M); NCI-H1975, H1975, EGFR L858R/T790M, 72 hours, read-out: GI50
  GI50: 0.44 µM
PC-9 EGFR del 19; Homo sapiens, 240 h, PC-9, 10 days, read-out: EC50 colony formation
  pEC50: 7.25
PC-9 EGFR del 19; PC-9, 10 days, read-out: EC50 colony formation
  pEC50: 7.25
PC-9 (EGFR Del19); PC-9, EGFR Del19, 72 hours, read-out: GI50
  GI50: 0.13 µM
HCC827 EGFR Del 19; HCC827, 10 days, read-out: EC50 colony formation
  pEC50: 7.96
HCC827 EGFR Del 19; Homo sapiens, HCC827, 240 h, HCC827, 10 days, read-out: EC50 colony formation
  pEC50: 7.94
H3255 cells
  %G0-G1: 81.24%
  %G2-M: 9.84%
H460 cells
  %G0-G1: 51.62%
  %G2-M: 8.78%
A549 (EGFR wt); A549, EGFR wt, 72 hours, read-out: GI50
  GI50: 0.83 µM
A431 (EGFR wt); A-431, A431, EGFR wt, 72 hours, read-out: GI50
  GI50: 1.2 µM
H460 (EGFR wt); NCI-H460, H460, EGFR wt, 72 hours, read-out: GI50
  GI50: 2.5 µM
H3255 EGFR L858R; Homo sapiens, NCI-H3255, 240 h, H3255, 10 days, read-out: EC50 colony formation
  pEC50: 6.68
PC-9 cells
  %G0-G1: 85.49%
  %G2-M: 8.97%

## COc1cc2ncnc(Nc3ccc(F)c(Cl)c3)c2cc1OCCCN1CCOCC1 [Gefitinib]
PC-9 xenograft
  anti-tumor activity (tumor growth): almost completely suppressed the tumor growth
H1975 xenograft
  anti-tumor activity (tumor growth): completely lost the anti-tumor efficacy
